Assay results reported in US6342368B1, “WD-40-derived peptides and uses thereof” (The Board of Trustees of the Leland Stanford Junior …, priority 1994, dated 2002).
“Also recorded” adds a separate entry of the source.

Key:
RACK1 = biological target: T1, RACK1 (Rattus norvegicus, UniProt P63245); test: Overlay assay: concentration dependence of PKC binding to recombinant RACK1; conditions: βPKC in the presence of other PKC isozymes, n=3
T1 construct: an open reading frame of 317 amino acids from the putative translation start site of pRACK1; made in house; host or cells: TB1 E. coli (RACK1); PKC mixture from rat brain
Description: Purified recombinant RACK1 protein (100-250 μg per lane, produced as detailed in Example 2) was subjected to SDS/PAGE and blotted onto nitrocellulose membranes (Ausubel). The nitrocellulose membranes were cut into strips, which were incubated for 0.5 hr in overlay buffer (Example 1) in the presence or absence of a mixture of PKC isozymes (α, β, γ, δ, ε and ζ, ˜10 nM each final concentration) and PKC activators (60 μg/ml phosphatidylserine (PS), 2 μg/ml diacylglycerol (DG), and 1 mM CaCl2). Unbound material was removed by five washes, 5-min each, in overlay wash buffer. Where indicated, PKC activators were present during the incubation of PKC with the nitrocellulose strips. The conditions for each sample and corresponding results are presented in part D below.
PKC bound to RACK1 immobilized on nitrocellulose strips was detected as follows. […]
The concentration dependence of PKC binding to RACK1 was characterized with βPKC , since this isozyme is a major component of the PKC mixture used for the overlay assay. The mean half maximal binding was ˜0.375 nM, and maximal binding was ˜4 nM (n=3; values reflect binding of βPKC isozyme in the presence of other PKC isozymes and was determined by scanning autoradiograms in the linear range of detection, as described in Mochly-Rosen, et al., (1991).

Xenopus oocytes = test: PKC-mediated Xenopus oocyte maturation (germinal vesicle breakdown, GVBD) after peptide microinjection; type: cell-based; conditions: for plateau % GVBD (fraction of oocytes reaching maturation) following insulin exposure: peptide 50 μM, 50 nl microinjected, 20 h time course
Description: Exposure to insulin induces maturation in Xenopus oocytes via a PKC-dependent pathway (Smith, et al., 1992). The maturation response may be quantified by monitoring the appearance of a white spot in the animal hemisphere of the oocyte, indicating germinal vesicle breakdown (GVBD) and maturation. To assess the effects of RACK1 WD-40-derived peptides on insulin-induced PKC-mediated maturation, 50 nl of a 20 mM NaCl solution containing the indicated peptides [peptide I (SEQ ID NO:1; ●), peptide rVI (SEQ ID NO:7; ▪), or injection solution (□)] (peptides at 50 μM) were microinjected into Xenopus oocytes. […] One hour following the peptide injections, the oocytes were exposed to a solution containing insulin (8.25 μg/ml) for 2 minutes (t=0). 10-15 oocytes were used for each sample.
The data, representative of three independent experiments, are expressed as the percent of oocytes with GVBD following insulin exposure and are plotted as a function of time in FIG. 5.

βPKC = biological target: T2, βPKC (Rattus norvegicus, UniProt P68403); test: Sensitivity of βPKC to Arg-C endopeptidase (nicking); type: biochemical; conditions: low activators: 2.5 μg/ml PS and 50 μM CaCl2; peptide 10 μM
T2 construct: All the solutions contained 5 nM rat brain PKC; from tissue; host or cells: rat brain
From the text: Upon activation of PKC, a pseudosubstrate autoinhibitory sequence at the N-terminus of the molecule dissociates from the catalytic site and becomes sensitive to endopeptidase Arg-C (Orr, et al.). In the absence of PKC activators, exposure of the 80 kDa βPKC to endopeptidase Arg-C has no effect on the enzyme (see FIG. 7, lane 1). In the presence of the PKC activators PS, DG and calcium, however, exposure of βPKC to Arg-C results in a “nicking” of the PKC (i.e. limited proteolysis generating a 78 kDa fragment and several small fragments (see FIG. 7, lane 2)). Continued exposure to Arg-C results in the disappearance of βPKC (Orr, et al.). The present experiment tests whether peptides derived from the WD-40 region of RACK1 alter the sensitivity of βPKC to endopeptidase Arg-C.
The methods used to assay Arg-C sensitivity are a modification of methods described by Orr, et al. Rat brain PKC (˜5 nM) was incubated at room temperature in 500 μl of 20 mM Tris-HCl buffer (pH 7.5) alone or with Arg-C (5 units/ml) in the presence or absence of the indicated peptides (final concentration 10 μM or as indicated), PS, DG, and calcium (as indicated). 50 μl aliquots were removed into 20 μl of sample buffer during the reaction as indicated (samples in all the lanes were incubated for 30 minutes , except lanes 5, and 6, which were incubated for 5 and 15 minutes, respectively). The samples were boiled for 10 minutes at 80° C. and loaded onto 8% SDS-PAGE. βPKC was detected by Western blot analysis using anti-βPKC antibodies as described in Examples 6 and 8.
PKC was incubated for the indicated time alone (lane 1) or in the presence of Arg-C (lanes 2-9), with DG (0.8 μg/ml), PS (50 μg/ml) and CaCl2 (1 mM; lane 2), with PS (50 μg/ml) and CaCl2 (1 mM; lane 3), with PS (2.5 μg/ml) and CaCl2 (50 μM; lane 4); with PS (2.5 μg/ml), CaCl2 (50 μM) and with either peptide rVI (SEQ ID NO:7; 10 μM; lanes 5-7), control peptide (SEQ ID NO:9; lane 8) or with peptide I (SEQ ID NO:1; lane 9).

PKC [1] = test: PKC autophosphorylation; type: biochemical, rat; conditions: peptide 10 μM; absence of PKC activators
Description: Rat brain PKC (˜10 nM) was incubated with mild agitation in a final volume of 250 μl of overlay buffer, as in Example 1 either with anti-βPKC pseudosubstrate antibodies (1:10 dilution, Life Technologies, Gaithersburg, Md.) or with the indicated peptide (10 μM). Where indicated, PS (50 μg/ml), DG (0.8 μg/ml) and CaCl2 (1 mM) were also added. The amount of autophosphorylation was determined after 2 hours for the reaction with the anti-pseudosubstrate antibodies, or after 15 minutes for the other samples. 50 μl of a buffer comprised of 20 mM Tris-HCl (pH 7.5), 20 mM MgCl2, 20 μM ATP and 5 μci/ml [γ-^32P]ATP. The mixture was incubated for 15 minutes at room temperature and the reaction was stopped by adding 60 μl sample buffer (see Example 9). The samples were then boiled for 10 minutes, loaded onto a 10% SDS-PAGE mini gel and electrophoresed. The gel was fixed with 50% methanol and 10% acetic acid for 1 hour, and the autophosphorylation of PKC was determined by autoradiography.
The results in FIG. 8 show PKC autophosphorylation in the presence of DG, PS, and calcium (lane 1), in the presence of EGTA (lane 2), in the presence of anti-βPKC pseudosubstrate antibodies (diluted 1:10 in 20 mM Tris-HCl; lane 3), in the presence of peptide rVI (SEQ ID NO:7; 10 μM; lane 4), in the presence of peptide I (SEQ ID NO:1; 10 μM; lane 5), or in the presence of control peptide (SEQ ID NO:9; 10 μM; lane 6).

[2] = system: PKC binding to recombinant RACK1; test: Overlay / overlay-extraction assay: inhibition of PKC binding to recombinant RACK1 by peptides; design: species or system rat; conditions: 10 μM peptide preincubated with PKC
Description: The variation in the overlay protocol consisted of incubating the putative binding peptides with a mixture of PKC isozymes for 15 minutes at room temperature before the mixture was used to contact the nitrocellulose strips containing immobilized RACK1.
Nitrocellulose strips containing immobilized RACK1, that had been contacted with a solution containing a mixture of PKC isozymes, were washed and the area corresponding to the 36 kDa (RACK1-containing) band was cut out. The pieces (containing PKC/RACK1 complexes) were incubated with sample buffer for 10 minutes at 80° C. The sample buffer and the nitrocellulose pieces were then placed in wells in the PAGE gel and subjected to SDS-PAGE to elute the bound proteins. The gel was blotted onto nitrocellulose and a Western blot analysis was carried out using the mixture of antibodies (specific for PKC α, β, γ, δ, ε and ζ isozymes) described in Example 1 part B. Bound antibodies were detected by ^125I-protein A.
Peptides derived from or homologous to WD-40 repeats of RACK1 were tested for their ability to inhibit PKC binding to recombinant RACK1. Binding of PKC to RACK1 was carried out using a variation of the overlay procedure described in Example 3 part B. In the experimental samples, peptides were incubated with a solution containing a mixture of rat brain PKC isozymes (˜10 nM each) for 15 minutes at room temperature.
Following completion of the modified overlay protocol, the samples were subjected to the overlay-extraction protocol detailed in part B, above.
The results in FIG. 3 show the binding of PKC to RACK1, carried out without (lane 1) or with (lanes 2-4) a preincubation of peptides with PKC. […] Peptide I caused an 81±6% inhibition of PKC binding to recombinant RACK1 as compared with binding in the absence of added peptide (n=3). Lanes 3 and 4 show PKC binding following a preincubation with 10 μM peptide rIII (SEQ ID NO:4) and 10 μM peptide rVI (SEQ ID NO:7), respectively. […] The results shown are representative of three independent experiments.

PKC [3] = test: Histone type IIIs phosphorylation by PKC; type: biochemical; conditions: absence of PS, DG and calcium; peptide 10 μM
Description: Histone type IIIs (Sigma Chemical Company, St. Louis, Mo.) was phosphorylated by PKC (˜10 nM) in the absence (lane 1) and presence of peptide rVI (10 μM) (lanes 2 and 3) and in the presence and absence of DG (0.8 μg/ml), PS (50 μg/ml) and CaCl2 (1 mM) (lane 3). The results are expressed as percentage of control that is the amount of Histone phosphorylation by PKC in the presence of DG (0.8 μg/ml), PS (50 μg/ml) and CaCl2 (1 mM). The results are the average ± SEM of two independent experiments. PKC was first incubated with the peptide rVI (10 μM) for 15 minutes in overlay buffer as described above. Histone type IIIs (40 μg/ml) was added in Tris-HCl (20 mM), MgCl2 (20 mM), ATP (20 μM) and ([γ-^32P]ATP (5 μci/ml) with or without PS (50 μg/ml), DG (0.8 μg/ml) and CaCl2 (1 mM). Histone phosphorylation was determined by autoradiography as above.

δ and εPKC isozymes = test: PKC isozyme translocation and degradation in cardiac myocytes; type: cell-based, rat
Description: In cardiac myocytes, norepinephrine (NE, 2 μM) causes translocation of δ and εPKC isozymes from the cytosolic to the particulate fraction. […] This peptide-induced translocation was followed by degradation of δ and εPKC isozymes.

[4] = biological target: mixture of rat brain PKC isozymes (α, β, γ, δ, ε and ζ) (rat); test: cell-based or functional assay
[5] = biological target: mixture of rat brain PKC isozymes (α, β, γ, δ, ε and ζ) (rat); test: overlay plus overlay-extraction assay; 10 µM peptide preincubated with PKC isozyme mixture (~10 nM each); immobilized RACK1
[6] = biological target: T3, βPKC (rat brain protein kinase C, β isozyme) (rat, UniProt P68403 2-671); test: slot-blot PKC overlay of immobilized peptide, with PS, DG and calcium, anti-βPKC detection
T3 construct: also called beta PKC; βPKC isozyme

[7] = peptide 50 μM microinjected, insulin 8.25 μg/ml
[8] = peptide introduced into cardiac myocytes

βPKC: β isozyme of protein kinase C, major component of the rat brain PKC mixture
maximal binding to RACK1 (RACK1): ~4 nM
Kd (RACK1; read-out: mean half maximal binding to RACK1): ~375 pM

control peptide: control peptide (SEQ ID NO:9) (LKGKIL) [reference compound]
delay to onset of maturation after exposure to insulin (Xenopus oocytes; [7]): 4 to 5 h
time to reach GVBD plateau after insulin exposure (Xenopus oocytes; [7]): 10 to 12 h
plateau % GVBD (fraction of oocytes reaching maturation) following insulin exposure (Xenopus oocytes; insulin 8.25 μg/ml): 85-90%
nicking of βPKC by Arg-C (78 kDa fragment) (βPKC): did not result in appreciable nicking activity; also recorded: did not occur
induction of PKC autophosphorylation (in words) (PKC [1]): No autophosphorylation; also recorded: Neither peptide I nor control peptide induced PKC autophosphorylation

peptide rIII: seven amino acid peptide identical to a segment of RACK1 WD-40 repeat III (DVLSVAF)
inhibition of PKC binding to RACK1 (in words) [2]: inhibit the binding of PKC to RACK1; also recorded: somewhat more effective than peptide rVI
effect on insulin-induced oocyte maturation (in words) (Xenopus oocytes; at 50 and 500 μM): enhances insulin-induced oocyte maturation
plateau % GVBD (fraction of oocytes reaching maturation) following insulin exposure (Xenopus oocytes; insulin 8.25 μg/ml): ~100%
effect on insulin-induced oocyte maturation (in words) (Xenopus oocytes; peptide microinjected, insulin): potentiated the effects of insulin on oocyte maturation
nicking of βPKC by Arg-C (78 kDa fragment) (βPKC): appearance of the 78 kDa nicked PKC fragment
induction of PKC-mediated histone phosphorylation (PKC [3]): similarly induced histone phosphorylation
NE-induced translocation of δ and εPKC (δ and εPKC isozymes; norepinephrine 2 μM): further enhanced
degradation of PKC isozymes (δ and εPKC isozymes; [8]): followed by degradation of these activated isozymes; also recorded: accelerated the degradation of PKC
translocation / distribution of δ and εPKC isozymes in the absence of hormone stimulation (δ and εPKC isozymes; [8]): caused an immediate translocation

DIINALCF [peptide rVI]
PKC autophosphorylation in the absence of PKC activators [4]: > 80%

KGDYEKILVALCGGN [peptide I]
% inhibition of PKC binding to recombinant RACK1 [5]: 81%

LKGKIL [control peptide]
binding result [6]: no binding
